For 26 compounds, IC50 results are on record in patent publication US11236046B2, “Substituted heterocyclic sulfonamide compounds useful as TRPA1 modulators” (Genentech, Inc., priority 2013, dated 2022).

Each structure is given as a SMILES string.

The target of this experiment is human TRPA1 (Homo sapiens (Human), UniProt O75762). The experiment in a line: FLIPR Tetra calcium influx assay, block of cinnamaldehyde-induced calcium influx in CHO cells expressing TRPA1 (human). Format: cell-based. The note with it: 20 min compound incubation, 75 uM cinnamaldehyde (~EC80), Hill coefficient fixed to 1.5, read-out: hTRPA1 AUC IC50. The method in brief: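 CHO cells loaded with calcium dye, preincubated with compounds 20 min at room temperature in HBSS/20 mM HEPES pH 7.4 with 0.02% BSA. Channels activated by ~EC80 cinnamaldehyde (75 uM human, 45 uM rat); block of calcium influx read on FLIPR Tetra, IC50 fitted with fixed Hill coefficient.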
Chain of human TRPA1 (O75762 whole entry): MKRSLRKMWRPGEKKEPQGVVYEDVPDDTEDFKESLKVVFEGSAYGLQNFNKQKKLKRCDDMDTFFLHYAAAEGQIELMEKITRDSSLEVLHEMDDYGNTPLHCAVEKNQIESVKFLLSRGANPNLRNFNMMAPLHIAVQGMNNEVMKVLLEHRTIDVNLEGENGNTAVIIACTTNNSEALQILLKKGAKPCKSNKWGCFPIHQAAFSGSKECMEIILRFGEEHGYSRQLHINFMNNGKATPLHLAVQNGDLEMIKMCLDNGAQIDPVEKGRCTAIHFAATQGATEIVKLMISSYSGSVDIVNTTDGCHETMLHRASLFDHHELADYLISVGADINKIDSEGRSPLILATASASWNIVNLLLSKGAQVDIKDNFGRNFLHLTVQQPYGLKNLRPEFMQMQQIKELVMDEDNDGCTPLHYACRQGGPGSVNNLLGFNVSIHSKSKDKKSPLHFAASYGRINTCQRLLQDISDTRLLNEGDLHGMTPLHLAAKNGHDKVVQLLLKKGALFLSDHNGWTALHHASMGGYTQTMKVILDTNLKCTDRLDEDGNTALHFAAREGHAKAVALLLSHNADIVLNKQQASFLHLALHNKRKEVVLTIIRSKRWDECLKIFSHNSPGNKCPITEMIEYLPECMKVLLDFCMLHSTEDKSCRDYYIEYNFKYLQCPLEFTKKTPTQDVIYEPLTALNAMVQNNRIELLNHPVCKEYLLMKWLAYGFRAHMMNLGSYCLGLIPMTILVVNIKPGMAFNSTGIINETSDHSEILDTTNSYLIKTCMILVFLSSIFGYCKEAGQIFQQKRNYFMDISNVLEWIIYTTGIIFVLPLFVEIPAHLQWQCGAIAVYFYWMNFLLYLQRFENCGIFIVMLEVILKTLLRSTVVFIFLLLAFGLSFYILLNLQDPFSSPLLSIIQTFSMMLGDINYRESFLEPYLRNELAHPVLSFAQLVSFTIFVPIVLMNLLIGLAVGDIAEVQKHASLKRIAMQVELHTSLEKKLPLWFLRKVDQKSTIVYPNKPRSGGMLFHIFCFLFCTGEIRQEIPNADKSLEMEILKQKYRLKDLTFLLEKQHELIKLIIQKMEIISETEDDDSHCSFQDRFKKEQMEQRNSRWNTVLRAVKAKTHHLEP
`O=C(NCc1ccnc(-c2cnc(C(F)(F)F)nc2)c1)[C@@H]1[C@H]2C[C@H]2CN1S(=O)(=O)c1ccc(F)cc1` [Example 172, (1R,4S,5S)-3-(4-fluorophenyl)sulfonyl-N-[[2-[2-(trifluoromethyl)pyrimidin-5-yl]-4-pyridyl]methyl]-3-azabicyclo[3.1.0]hexane-4-carboxamide]: the IC50 (as a rule, the concentration that gives 50% inhibition) is 38 nM.
Take `O=C(NCc1cc(F)cc(-c2csc(C(F)(F)F)n2)c1)[C@@H]1C[C@@H](F)CN1S(=O)(=O)c1ccc(F)cc1` [Example 173, (2S,4R)-4-fluoro-1-(4-fluorophenyl)sulfonyl-N-[[3-fluoro-5-[2-(trifluoromethyl)thiazol-4-yl]phenyl]methyl]pyrrolidine-2-carboxamide]: the IC50 came out at 111 nM.
Take `O=C(NCc1cc(F)cc(-c2nc(C(F)(F)F)cs2)c1)[C@@H]1C[C@@H](F)CN1S(=O)(=O)c1ccc(F)cc1` [Example 175, (2S,4R)-4-fluoro-1-(4-fluorophenyl)sulfonyl-N-[[3-fluoro-5-[4-(trifluoromethyl)thiazol-2-yl]phenyl]methyl]pyrrolidine-2-carboxamide]: the IC50 came to 86 nM.
Consider `N#Cc1ccc(-c2cnc(C(F)(F)F)nc2)cc1CNC(=O)[C@@H]1[C@H]2C[C@H]2CN1S(=O)(=O)c1ccc(F)cc1` [Example 176, (1S,2S,5R)—N-(2-cyano-5-(2-(trifluoromethyl)pyrimidin-5-yl)benzyl)-3-((4-fluorophenyl)sulfonyl)-3-azabicyclo[3.1.0]hexane-2-carboxamide], for which the IC50 is 8 nM.
With `O=C(NCc1cc(-c2ccc(C(F)(F)F)cc2)ccc1F)[C@@H]1C[C@@H](F)CN1S(=O)(=O)c1ccc(F)cc1` [Example 177, (2S,4R)-4-fluoro-N-((4-fluoro-4′-(trifluoromethyl)-[1,1′-biphenyl]-3-yl)methyl)-1-((4-fluorophenyl)sulfonyl)pyrrolidine-2-carboxamide], the IC50 came to 5 nM.
As for `Nc1nc(C(F)(F)F)ccc1-c1cc(CNC(=O)[C@@H]2C[C@@H](F)CN2S(=O)(=O)c2ccc(F)cc2)ccn1` [Example 178, (2S,4R)—N-[[2-[2-amino-6-(trifluoromethyl)-3-pyridyl]-4-pyridyl]methyl]-4-fluoro-1-(4-fluorophenyl)sulfonyl-pyrrolidine-2-carboxamide], the IC50 came out at 175 nM.
Turning to `CNc1nc(C(F)(F)F)ccc1-c1cc(CNC(=O)[C@@H]2C[C@@H](F)CN2S(=O)(=O)c2ccc(F)cc2)ccn1` [Example 179, (2S,4R)-4-fluoro-1-(4-fluorophenyl)sulfonyl-N-[[2-[2-(methylamino)-6-(trifluoromethyl)-3-pyridyl]-4-pyridyl]methyl]pyrrolidine-2-carboxamide], the IC50 was determined as 62 nM.
With `O=C(NCc1cc(-c2cnc(C(F)(F)F)nc2)ncc1F)[C@@H]1C[C@@H](F)CN1S(=O)(=O)c1ccc(F)cc1` [Example 180, (2S,4R)-4-fluoro-1-(4-fluorophenyl)sulfonyl-N-[[5-fluoro-2-[2-(trifluoromethyl)pyrimidin-5-yl]-4-pyridyl]methyl]pyrrolidine-2-carboxamide], the IC50 turned out to be 26 nM.
In the case of `O=C(NCc1cc(F)cc(-c2cnc(C(F)(F)F)nc2)c1)[C@]12C[C@H]1CCN2S(=O)(=O)c1ccc(F)cc1` [Example 181, (1R,5S)-4-(4-fluorophenyl)sulfonyl-N-[[3-fluoro-5-[2-(trifluoromethyl)pyrimidin-5-yl]phenyl]methyl]-4-azabicyclo[3.1.0]hexane-5-carboxamide], the IC50 was 10 nM.
As to `O=C(NCc1cc(-c2cnc(C(F)(F)F)nc2)ccc1F)[C@]12C[C@H]1CCN2S(=O)(=O)c1ccc(F)cc1` [Example 182, (1R,5S)-4-(4-fluorophenyl)sulfonyl-N-[[2-fluoro-5-[2-(trifluoromethyl)pyrimidin-5-yl]phenyl]methyl]-4-azabicyclo[3.1.0]hexane-5-carboxamide], the IC50 was determined as 21 nM.
As for `O=C(NCc1cc(-c2cnc(C(F)(F)F)nc2)ccc1F)[C@@H]1[C@H]2C[C@H]2CN1S(=O)(=O)c1ccc(F)cc1` [Example 183, (1S,2S,5R)—N-(2-fluoro-5-(2-(trifluoromethyl)pyrimidin-5-yl)benzyl)-3-((4-fluorophenyl)sulfonyl)-3-azabicyclo[3.1.0]hexane-2-carboxamide], the IC50 stood at 3 nM.
Consider `O=C(NCc1cc(-c2cnc(C(F)(F)F)nc2)ncc1Cl)[C@@H]1C[C@@H](F)CN1S(=O)(=O)c1ccc(F)cc1` [Example 184, (2S,4R)—N-([5-chloro-2-[2-(trifluoromethyl)pyrimidin-5-yl]pyridin-4-yl]methyl)-4-fluoro-1-[(4-fluorobenzene)sulfonyl]pyrrolidine-2-carboxamide], for which the IC50 amounted to 10 nM.
With `O=C(NCc1cc(-c2cnc(C(F)(F)F)nc2)ncc1F)C1C2CC(CC2F)N1S(=O)(=O)c1ccc(F)cc1` (centres unmarked) [Example 185, 5-fluoro-N-((5-fluoro-2-(2-(trifluoromethyl)pyrimidin-5-yl)pyridin-4-yl)methyl)-2-(4-fluorophenylsulfonyl)-2-aza-bicyclo[2.2.1]heptane-3-carboxamide], the IC50 is 155 nM.
Turning to `C[C@H]1CC[C@@H](C(=O)NCc2ccnc(-c3cnc(C(F)(F)F)nc3)c2)N1S(=O)(=O)c1ccc(F)cc1` [Example 186, (2S,5S)-1-(4-fluorophenylsulfonyl)-5-methyl-N-((2-(2-(trifluoromethyl)pyrimidin-5-yl)pyridin-4-yl)methyl)pyrrolidine-2-carboxamide], the IC50 was found to be 4 nM.
With `C[C@@]1(F)C[C@@H](C(=O)NCc2cc(-c3cnc(C(F)(F)F)nc3)ccc2F)N(S(=O)(=O)c2ccc(F)cc2)C1` [Example 187, (2S,4R)-4-fluoro-N-(2-fluoro-5-(2-(trifluoromethyl)pyrimidin-5-yl)benzyl)-1-((4-fluorophenyl)sulfonyl)-4-methylpyrrolidine-2-carboxamide], the IC50 was found to be 6 nM.
Regarding `COc1cc(CNC(=O)[C@@H]2C[C@@H](F)CN2S(=O)(=O)c2ccc(F)cc2)cc(-c2cnc(C(F)(F)F)nc2)n1` [Example 188, (2S,4R)-4-fluoro-1-(4-fluorophenyl)sulfonyl-N-[[2-methoxy-6-[2-(trifluoromethyl)pyrimidin-5-yl]-4-pyridyl]methyl]pyrrolidine-2-carboxamide], the half-maximal inhibitory concentration (IC50) stood at 8 nM.
Regarding `N#Cc1cnc(-c2cnc(C(F)(F)F)nc2)cc1CNC(=O)[C@@H]1C[C@@H](F)CN1S(=O)(=O)c1ccc(F)cc1` [Example 189, (2S,4R)—N-([5-cyano-2-[2-(trifluoromethyl)pyrimidin-5-yl]pyridin-4-yl]methyl)-4-fluoro-1-[(4-fluorobenzene)sulfonyl]pyrrolidine-2-carboxamide], the IC50 came out at 55 nM.
Turning to `COCCOc1nc(C(F)(F)F)ccc1-c1cc(F)cc(CNC(=O)[C@@H]2C[C@@H](F)CN2S(=O)(=O)c2ccc(F)cc2)c1` [Example 190, (2S,4R)-4-fluoro-N-([3-fluoro-5-[2-(2-methoxyethoxy)-6-(trifluoromethyl)pyridin-3-yl]phenyl]methyl)-1-[(4-fluorobenzene)sulfonyl]pyrrolidine-2-carboxamide], the IC50 turned out to be 52 nM.
Regarding `Cc1cc(-c2cnc(C(F)(F)F)nc2)cc(CNC(=O)[C@@H]2[C@@H](F)CCN2S(=O)(=O)c2ccc(F)cc2)n1` [Example 191, (2R,3S)-3-fluoro-1-[(4-fluorobenzene)sulfonyl]-N-([6-methyl-4-[2-(trifluoromethyl)pyrimidin-5-yl]pyridin-2-yl]methyl)pyrrolidine-2-carboxamide], the IC50 was 27 nM.
Take `O=C(NCc1cc(-c2cnc(C(F)(F)F)nc2)c(Cl)cn1)[C@@H]1C[C@@H](F)CN1S(=O)(=O)c1ccc(F)cc1` [Example 192, (2S,4R)—N-([5-chloro-4-[2-(trifluoromethyl)pyrimidin-5-yl]pyridin-2-yl]methyl)-4-fluoro-1-[(4-fluorobenzene)sulfonyl]pyrrolidine-2-carboxamide]: the IC50 was 42 nM.
`C[C@H]1[C@H](F)C[C@@H](C(=O)NCc2ccnc(-c3cnc(C(F)(F)F)nc3)c2)N1S(=O)(=O)c1ccc(F)cc1` [Example 193, (2S,4R,5S)-4-fluoro-1-[(4-fluorobenzene)sulfonyl]-5-methyl-N-([2-[2-(trifluoromethyl)pyrimidin-5-yl]pyridin-4-yl]methyl)pyrrolidine-2-carboxamide]: the IC50 was determined as 15 nM.
Take `CC1(C)CC[C@@H](C(=O)NCc2cc(-c3ccc(C(F)(F)F)nc3)ncn2)N1S(=O)(=O)c1ccc(F)cc1` [Example 194, (2S)-1-(4-fluorophenyl)sulfonyl-5,5-dimethyl-N-[[6-[6-(trifluoromethyl)-3-pyridyl]pyrimidin-4-yl]methyl]pyrrolidine-2-carboxamide]: the IC50 is 381 nM.
`O=C(NCc1cncc(-c2cnc(C(F)(F)F)nc2)c1)[C@@H]1C[C@@H](F)CN1S(=O)(=O)c1ccc(F)cc1` [Example 195, (2S,4R)-4-fluoro-1-(4-fluorophenyl)sulfonyl-N-[[5-[2-(trifluoromethyl)pyrimidin-5-yl]-3-pyridyl]methyl]pyrrolidine-2-carboxamide]: the IC50 amounted to 795 nM.
As to `COc1cnc(-c2cnc(C(F)(F)F)nc2)cc1CNC(=O)[C@@H]1C[C@@H](F)CN1S(=O)(=O)c1ccc(F)cc1` [Example 196, (2S,4R)-4-fluoro-1-(4-fluorophenylsulfonyl)-N-((5-methoxy-2-(2-(trifluoromethyl)pyrimidin-5-yl)pyridin-4-yl)methyl)pyrrolidine-2-carboxamide], the IC50 turned out to be 134 nM.
Consider `O=C(NCc1cn(-c2ccc(C(F)(F)F)cc2)nc1Cl)[C@@H]1CCN1S(=O)(=O)c1ccc(F)cc1` [Example 197, (2S)—N-([3-chloro-1-[4-(trifluoromethyl)phenyl]-1H-pyrazol-4-yl]methyl)-1-[(4-fluorobenzene)sulfonyl]azetidine-2-carboxamide], for which the IC50 was found to be 15 nM.
Consider `C[C@@]1(C(=O)NCc2cc(-c3ccc(C(F)(F)F)nc3)ncn2)CCN1S(=O)(=O)c1ccc(F)cc1` [Example 198, (S)-1-(4-fluorophenylsulfonyl)-2-methyl-N-((6-(6-(trifluoromethyl)pyridin-3-yl)pyrimidin-4-yl)methyl)azetidine-2-carboxamide], for which the IC50 is 59 nM.
